Results: patent publication US20230277669A1, “USES OF UROLITHINS” (Amazentis SA, priority 2022, published 2023)

What was measured:
CD8+ T cells = assay: In vitro stimulation of CD3+ T cells with aCD3/aCD28 beads in presence of UA; format: cell-based, FVB mice
Experimental: (FIG. 2A) Scheme of CD3+ T-cell activation and analysis for various timepoints. (FIG. 2B) Reduced effector molecule expression on in vitro treated cells (n=3 pooled from three independent experiments). Isolated T-cells were stimulated for 48 h at the presence of UA or DMSO in the indicated doses. Data are mean ± SD, *p < 0.05 by two-sided t-test. (FIG. 2C) Reduced effector molecule expression on in vitro treated cells (n=3 pooled from three independent experiments). Isolated T-cells were stimulated for 48 h at the presence of UA or DMSO in the indicated doses. Data are mean ± SD, *p < 0.05 by two-sided t-test. (FIG. 2D) Quantification of T memory stem cells (TSCM: CD44^-CD62L^+Sca1^hi) after 24 h, 48 h and 96 h post stimulation with aCD3/aCD28 stimulation beads as indicated in (A) (n=4 pooled from four independent experiments). Data are mean ± SD, statistical analysis was performed via two-sided t-test (*p < 0.05; **p < 0.01; n.s. not significant). (FIG. 2E) Mitochondrial membrane potential within naïve CD62L^+CD44^-CD8^+ T cells, with TMRM^lo representing cells with low mitochondrial membrane potential. Cells were stimulated for 48 h as depicted in (A). Data are mean ± SD, n=4; ***p <0.001 by two-sided t-test. Experiment was repeated twice in independent experiments. (FIG. 2F) Representative histogram and quantification of memory marker CD95 expression in CD62L^+CD44^-CD8^+ cells, 48 hours after in vitro stimulation. Data are mean ± SD; n=5; ****p < 0.0001 by two-sided t-test. Data depicts one of two independent experiments. (FIG. 2G) Analysis of TIL of UA-fed mice, treated as depicted in FIG. 1J. Percentage of TSCM within CD8+ (G; n=7), as well as TCF1 (H; n=7) PD1^hi,Tim3^hi and CTLA4hi (I-K, all n=6) in the TIL CD8+ population are shown. Data are mean ± SD, statistical analysis was performed via two-sided t-test (*p < 0.05; **p < 0.01;, ***p <0.001.). Data depicts one of two independent experiments. (FIG. 2H) The same experiment as FIG. 2G with TCF1 (n=7) in the TIL CD8+ population. (FIG. 2I) The same experiment as FIG. 2G with PD1^hi (n=6) in the TIL CD8+ population. (FIG. 2J) The same experiment as FIG. 2G with Tim3^hi (n=6) in the TIL CD8+ population. (FIG. 2K) The same experiment as FIG. 2G with CTLA4hi (n=6) in the TIL CD8+ population. (FIG. 2L) Flow cytometry readout of ex vivo cytokine release of previously isolated TIL upon re-stimulation with PMA/ionomycin. Data are mean ± SD with n=7 per group. Statistical analysis was performed by two-sided t-test (**p < 0.01). One out of two independent experiments are shown. (FIG. 2M) Flow cytometry readout of ex vivo cytokine release of previously isolated TIL upon re-stimulation with PMA/ionomycin. Data are mean ± SD with n=7 per group. Statistical analysis was performed by two-sided t-test (**p < 0.01). One out of two independent experiments are shown.
(FIG. 4A) Scheme of CD3+ T-cell activation and analysis for various timepoints in order to investigate mitophagy induction in vitro. (FIG. 4B) Analysis of mitochondrial membrane potential within CD8+ T cells, with TMRM^lo representing cells with low mitochondrial membrane potential. Analysis was performed six hours after stimulation with aCD/aCD28 stimulation beads at the presence of the indicated treatments. N=4 per group, *p < 0.05 by Mann Whitney U test. One of two independent experiments are shown. (FIG. 4C) Representative flow histogram and quantification of lysosome formation in CD8+ cells six hours after in vitro stimulation. MFI shown relative to DMSO controls, n=4. Data are normalised mean ± SD, statistical analysis by two-sided t-test. One out of two independent experiments are shown. (FIG. 4D) Mitotracker Red staining of in vitro stimulated CD8+ cells after 24 hours of Urolithin A (UA25 n=6; UA50 n=6) or vehicle control treatment (DMSO: n=4). A representative flow histogram depicting identification of Mitotracker^hi cells is shown. […]

[1] = tested on: CAR-T cells specific for carcinoembryonic antigen (CEA); assay: UA applied to previously frozen CEA-specific CAR-T cells; format: cell-based, human

Q: Which “number of CD44-CD62L+Sca1hi TSCM” value (CD8+ T cells; 24 h, 48 h and 96 h post stimulation) does the source give for `O=c1oc2cc(O)ccc2c2ccc(O)cc12` [Urolithin A] here?
A: in a dose dependent manner to a significantly increased number

Q: What about the “loss of mitochondrial content per T cell subset (TSCM, TCM, TEFF)” value (CD8+ T cells; 24 hours, 50 µM Urolithin A) of the same compound?
A: deteted in all T cell subsets analyzed

Q: And the “mitochondrial content (Mitotracker Red) in CD8+ cells” value (CD8+ T cells; 24 hours, UA25, UA50)?
A: loss of mitochondrial content in a dose-dependent manner

Q: And the “TSCM formation, stimulated vs unstimulated CD8+ cells” value (CD8+ T cells; 48 h, aCD3/CD28 beads +-UA or unstimulated)?
A: only formed in activated T cells

Q: What about the “PGC-1 expression in CD8+ cells” value (CD8+ T cells; 48 h, prolonged UA administration in vitro) of the same compound?
A: marked upregulation of PGC-1

Q: What about the “CD95 expression in CD62L+CD44-CD8+ cells” value (CD8+ T cells; 48 hours after stimulation) of the same compound?
A: increased CD95 expression

Q: And the TCF1 expression (CD8+ T cells; 48 h stimulation)?
A: high expression of TCF1

Q: What about the “cyclin D1 expression” value (CD8+ T cells; 48 h stimulation) of the same compound?
A: reduced cyclin D1 expression

Q: What about the “differentiation into effector T cells (effector molecule expression)” value (CD8+ T cells; 48 h stimulation) of the same compound?
A: blocked differentiation into effector T cells

Q: What about the “mitochondrial membrane potential (TMRM) in naive CD62L+CD44-CD8+ T cells” value (CD8+ T cells; 48 h stimulation) of the same compound?
A: reduced mitochondrial membrane potential

Q: And the “naive CD44loCD62Lhi T cells” value (CD8+ T cells; 48 h stimulation, different doses of UA)?
A: significant increase

Q: What about the “CD8+ T cell division (CTV staining)” value (CD8+ T cells; 72 h stimulation) of the same compound?
A: restricted CD8+T cell division in a dose-dependent manner

Q: And the “mitochondrial membrane potential in CD8+ T cells” value (CD8+ T cells; six hours after UA administration)?
A: reduction of mitochondrial membrane potential

Q: And the “lysosome formation in CD8+ cells” value (CD8+ T cells; six hours after stimulation)?
A: enhanced lysosome formation

Q: And the “CAR TSCM formation” value [1]?
A: strongly enhanced CAR TSCM formation
